Experimental data: patent US20050101595A1, “N-containing cycloalkyl-substituted amino-thiazole derivatives and pharmaceutical compositions for inhibiting cell proliferation and methods for their use” (PFIZER INC., priority 2003, published 2005)
Counter-ions that a name gives are not always drawn. Like-named read-outs stand apart in the source and are kept apart here. Values belong to the compound of their own block, whether it stands above or below them.

Experiments:
[1] = biological target: human CDK4 and genetically truncated (1-264) cyclin D3 (Homo sapiens, UniProt P11802); experiment: Inhibition of CDK4/Cyclin D Retinoblastoma Kinase Activity; assay type: biochemical; settings: for Ki: apparent Ki, CDK4/truncated cyclin D3, Rb fragment substrate, 25 μM ATP
Sequence of human CDK4 and genetically truncated (1-264) cyclin D3 (P11802 whole entry, the tested form may be a part): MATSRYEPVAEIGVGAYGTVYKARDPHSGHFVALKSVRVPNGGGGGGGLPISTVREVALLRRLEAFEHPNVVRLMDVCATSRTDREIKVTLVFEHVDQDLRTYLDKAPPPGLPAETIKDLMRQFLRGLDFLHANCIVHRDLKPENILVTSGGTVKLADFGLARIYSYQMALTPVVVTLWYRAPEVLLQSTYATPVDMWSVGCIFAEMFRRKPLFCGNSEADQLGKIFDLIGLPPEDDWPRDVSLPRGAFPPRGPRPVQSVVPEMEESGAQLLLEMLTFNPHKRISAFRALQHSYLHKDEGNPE
Sequence of human CDK4 and genetically truncated (1-264) cyclin D3 (P30281 1-264 partner): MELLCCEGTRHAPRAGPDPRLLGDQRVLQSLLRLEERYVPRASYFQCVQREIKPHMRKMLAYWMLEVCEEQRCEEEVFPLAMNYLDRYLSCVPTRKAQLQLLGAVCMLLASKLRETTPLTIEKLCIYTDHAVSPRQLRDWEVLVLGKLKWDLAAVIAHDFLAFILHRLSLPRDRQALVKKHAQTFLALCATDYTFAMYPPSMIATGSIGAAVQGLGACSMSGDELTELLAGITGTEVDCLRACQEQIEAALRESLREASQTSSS
Method in brief: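 Read-out: 32P/33P incorporation into Rb fragment (386-928) captured on nitrocellulose, phosphorimager. Enzyme 5 nM CDK4/cyclin D3(1-264) from insect cells; ATP 25 μM, pH 7.4, 30 °C, 20 min (60 min for tight binders). Ki from competitive fits.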

HCT-116 cell line = experiment: Inhibition of cell growth, tetrazolium salt (MTT) assay; assay type: cell-based; settings: for HCT-116 % Inhibition at 0.25 μM: 0.25 μM compound; for IC50: Homo sapiens, HCT-116, 120 h, MTT, three to five days, read-out: HCT-116 IC50
Method in brief: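 Growth inhibition is scored relative to cells receiving only 0.5% (v/v) DMSO. Plated cells rest 4 h, then take compound for three to five days at 37° C; MTT reduction to formazan is read at 540 nm.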

CDK2/Cyclin A = CDK2/Cyclin A (Homo sapiens, UniProt P24941); experiment: Inhibition of CDK2/Cyclin A Retinoblastoma Kinase Activity; assay type: biochemical; settings: for CDK2 % Inhibition At 0.03 μM: Table 2; for Ki: apparent Ki, CDK2/proteolyzed cyclin A, Rb fragment substrate, 25 μM ATP
Method in brief: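 Human CDK2, baculovirus/insect-cell expressed, complexed with proteolyzed cyclin A (10 nM or 19 nM CDK2) phosphorylates an Rb fragment with 25 μM [32P/33P]ATP at pH 7.4, 30° C, for 60 or 75 minutes under initial-rate conditions. Filter-captured radioactivity is read by phosphorimager; apparent Ki from competitive-inhibition fits.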

[2] = 0.1 μM compound, HCT-116, Table 3
[3] = 0.1 μM compound, HCT-116, Table 4
[4] = 0.03 μM compound, Table 4, 0.03 µM

- CDK4 % Inhibition at 0.03 μM ([1]; 0.03 μM compound, Table 3): 61%
- CDK2 % Inhibition at 0.03 μM (CDK2/Cyclin A; 0.03 μM compound, Table 3): 61%
Compound: CSc1nccc(-c2ccc(S(=O)(=O)N3CCC(Nc4nc(N)c(C(=O)c5c(F)cccc5F)s4)CC3)s2)n1 [Example P72]
- HCT-116 % Inhibition at 0.1 μM (HCT-116 cell line; [2]): 13%
- HCT-116 % Inhibition at 0.25 μM (HCT-116 cell line; HCT-116, Table 3): 35%

- CDK4 % Inhibition at 0.03 μM ([1]; 0.03 μM compound, Table 2): 5%
- CDK2 % Inhibition At 0.03 μM (CDK2/Cyclin A; 0.03 μM compound): 28%
Compound: Nc1nc(NC2CCN(C(=O)Nc3ccccc3C(F)(F)F)CC2)sc1C(=O)c1c(F)cccc1F [Example O10]
- HCT-116 % Inhibition at 0.25 μM (HCT-116 cell line; HCT-116, Table 2): 0%

- CDK4 % Inhibition at 0.03 μM ([1]; 0.03 μM compound, Table 3): 65%
- CDK2 % Inhibition at 0.03 μM (CDK2/Cyclin A; 0.03 μM compound, Table 3): 64%
Compound: Nc1nc(NC2CCN(S(=O)(=O)c3ccc4ccccc4c3)CC2)sc1C(=O)c1c(F)cccc1F [Example P3]
- HCT-116 % Inhibition at 0.1 μM (HCT-116 cell line; [2]): 17%
- HCT-116 % Inhibition at 0.25 μM (HCT-116 cell line; HCT-116, Table 3): 23%

- CDK4 % Inhibition at 0.03 μM ([1]; 0.03 μM compound, Table 3): 49%
- CDK2 % Inhibition at 0.03 μM (CDK2/Cyclin A; 0.03 μM compound, Table 3): 44%
Compound: Cc1ccc2cc(S(=O)(=O)N3CCC(Nc4nc(N)c(C(=O)c5c(F)cccc5F)s4)CC3)ccc2c1 [Example P88]
- HCT-116 % Inhibition at 0.1 μM (HCT-116 cell line; [2]): 7%
- HCT-116 % Inhibition at 0.25 μM (HCT-116 cell line; HCT-116, Table 3): 34%

- CDK4 % Inhibition at 0.03 μM ([1]; at 0.03 μM): 20%
- CDK2 % Inhibition at 0.03 μM (CDK2/Cyclin A; at 0.03 μM): 3%
Compound: Nc1nc(NC2CCN(C(=O)[C@H](Cc3ccccc3)NS(=O)(=O)c3ccc([N+](=O)[O-])cc3)CC2)sc1C(=O)c1c(F)cccc1F [Example R74]
- HCT-116 % Inhibition at 0.1 μM (HCT-116 cell line; HCT-116 cells, at 0.1 μM): 0.12%
- HCT-116 5 Inhibition at 0.25 μM (HCT-116 cell line; HCT-116 cells): 42

- CDK4 % Inhibition at 0.03 μM ([1]; 0.03 μM compound, Table 4): 13%
- CDK2 % Inhibition at 0.03 μM (CDK2/Cyclin A; 0.03 μM compound, Table 4): −43%
Compound: CN(C)C(=O)N1CCC(Nc2nc(N)c(C(=O)c3c(F)cccc3F)s2)CC1 [Example Q2]
- HCT-116 % Inhibition at 0.1 μM (HCT-116 cell line; [3]): 0.71%
- HCT-116 % Inhibition at 0.25 μM (HCT-116 cell line; HCT-116, Table 4): 43%

- CDK4 % Inhibition at 0.03 μM ([1]; at 0.03 μM): 83%
- CDK2 % Inhibition at 0.03 μM (CDK2/Cyclin A; at 0.03 μM): 74%
Compound: CC(=O)Nc1ccc(C(=O)N2CCC(Nc3nc(N)c(C(=O)c4c(F)cccc4F)s3)CC2)cc1 [Example R146]
- HCT-116 % Inhibition at 0.1 μM (HCT-116 cell line; HCT-116 cells, at 0.1 μM): 0%
- HCT-116 5 Inhibition at 0.25 μM (HCT-116 cell line; HCT-116 cells): 10

- CDK4 % Inhibition at 0.03 μM ([1]; at 0.03 μM): 38%
- CDK2 % Inhibition at 0.03 μM (CDK2/Cyclin A; at 0.03 μM): 21%
Compound: Nc1nc(NC2CCN(C(=O)C34CC5CC(CC(C5)C3)C4)CC2)sc1C(=O)c1c(F)cccc1F [Example R54]
- HCT-116 % Inhibition at 0.1 μM (HCT-116 cell line; HCT-116 cells, at 0.1 μM): 0%
- HCT-116 5 Inhibition at 0.25 μM (HCT-116 cell line; HCT-116 cells): 39

- CDK4 % Inhibition at 0.03 μM ([1]; 0.03 μM compound, Table 4): 48%
- CDK2 % Inhibition at 0.03 μM (CDK2/Cyclin A; 0.03 μM compound, Table 4): 5%
Compound: Nc1nc(NC2CCN(C(=O)CCc3ccccc3)CC2)sc1C(=O)c1c(F)cccc1F [Example Q48]
- HCT-116 % Inhibition at 0.1 μM (HCT-116 cell line; [3]): 0%
- HCT-116 % Inhibition at 0.25 μM (HCT-116 cell line; HCT-116, Table 4): 19%

- Ki [1]: 0.00038 µM
- IC50 (HCT-116 cell line; first HCT-116 column (c4)): 0.06 µM
- IC50 (HCT-116 cell line; second HCT-116 column (c5)): 0.5 µM
- Ki (CDK2/Cyclin A): 0.00084 µM
Compound: Nc1nc(NC2CCN(S(=O)(=O)c3ccc(OCCN4CCCCC4)nc3)CC2)sc1C(=O)c1c(F)cccc1F [Example H6, 1-[4-Amino-2-{1-[6-(2-piperidin-1-yl-ethoxy)-pyridine-3-sulfonyl]-piperidin-4-ylamino}-thiazol-5-yl)-1-(2,6-difluoro-phenyl)-methanone Dihydrochloride]

- CDK4 % Inhibition at 0.03 μM ([1]; at 0.03 μM): 38%
- CDK2 % Inhibition at 0.03 μM (CDK2/Cyclin A; at 0.03 μM): 18%
Compound: Nc1nc(NC2CCN(C(=O)c3ccccc3C(F)(F)F)CC2)sc1C(=O)c1c(F)cccc1F [Example R124]
- HCT-116 % Inhibition at 0.1 μM (HCT-116 cell line; HCT-116 cells, at 0.1 μM): 0%
- HCT-116 5 Inhibition at 0.25 μM (HCT-116 cell line; HCT-116 cells): 35

- Ki [1]: 0.018 µM
- IC50 (HCT-116 cell line; first HCT-116 column (c4)): > 5 µM
- IC50 (HCT-116 cell line; second HCT-116 column (c5)): > 5 µM
- Ki (CDK2/Cyclin A): 0.0031 µM
Compound: Nc1nc(NC2CCN(S(=O)(=O)CCCc3nnn[nH]3)CC2)sc1C(=O)c1c(F)cccc1F [Example K18, 1-(4-Amino-2-{1-[3-(1H-tetrazol-5-yl)-propane-1-sulfonyl]-piperidin-4-ylamino}-thiazol-5-yl)-1-(2,6-difluoro-phenyl)-methanone.]

- CDK4 % Inhibition at 0.03 μM ([1]; 0.03 μM compound, Table 2): 2%
- CDK2 % Inhibition At 0.03 μM (CDK2/Cyclin A; 0.03 μM compound): 35%
Compound: COc1ccc(OC)c(NC(=O)N2CCC(Nc3nc(N)c(C(=O)c4c(F)cccc4F)s3)CC2)c1 [Example O9]
- HCT-116 % Inhibition at 0.25 μM (HCT-116 cell line; HCT-116, Table 2): 13%

- Ki [1]: 0.00046 µM
- IC50 (HCT-116 cell line; first HCT-116 column (c4)): 0.17 µM
- IC50 (HCT-116 cell line; second HCT-116 column (c5)): 0.45 µM
- Ki (CDK2/Cyclin A): 0.00043 µM
Compound: Nc1nc(NC2CCN(S(=O)(=O)c3ccc(-c4ccccn4)s3)CC2)sc1C(=O)c1c(F)cccc1F [Example F6, 1-{4-Amino-2-[1-(5-pyridin-2-yl-thiophene-2-sulfonyl)-piperidin-4-ylamino]-thiazol-5-yl}-1-(2,6-difluoro-phenyl)-methanone]

- CDK4 % Inhibition at 0.03 μM [1, 4]: 42%
- CDK2 % Inhibition at 0.03 μM (CDK2/Cyclin A; [4]): −4%
Compound: CCCCCCOc1ccc(C(=O)N2CCC(Nc3nc(N)c(C(=O)c4c(F)cccc4F)s3)CC2)cc1 [Example Q30]
- HCT-116 % Inhibition at 0.1 μM (HCT-116 cell line; [3]): 8%
- HCT-116 % Inhibition at 0.25 μM (HCT-116 cell line; HCT-116, Table 4, 0.25 µM): 47%
